The kinase profiling compilation of Christmann-Franck et al. (2016)

Experiments:
Experiment in all cases: radiometric filter-binding kinase assay
GCK (human) = GCK (human) (UniProt Q12851)
[1] = test system: AKT1 (human), P31749 [S473D]
MAP3K11 (human) = MAP3K11 (human) (UniProt Q16584)
AURKB (human) = AURKB (human) (UniProt Q96GD4)
MST4 (human) = MST4 (human) (UniProt Q9P289)
CaMK1 (human) = CaMK1 (human) (UniProt Q14012)
DYRK3 (human) = DYRK3 (human) (UniProt O43781)
CDK2 CCNA2 (human) = CDK2 CCNA2 (human) (UniProt P20248+P24941)
IKBKB (human) = IKBKB (human) (UniProt O14920)
SRC (human) = SRC (human) (UniProt P12931)
MAP3K7 TAB1 (human) = MAP3K7 TAB1 (human) (UniProt Q15750+O43318)
MAPK10 (human) = MAPK10 (human) (UniProt P53779)
NUAK1 (human) = NUAK1 (human) (UniProt O60285)
MYLK (human) = MYLK (human) (UniProt Q15746)
CHEK2 (human) = CHEK2 (human) (UniProt O96017)
MARK2 (human) = MARK2 (human) (UniProt Q7KZI7)
TAOK1 (human) = TAOK1 (human) (UniProt Q7L7X3)
EPHB1 (human) = EPHB1 (human) (UniProt P54762)
CHEK1 (human) = CHEK1 (human) (UniProt O14757)
PKN2 (human) = PKN2 (human) (UniProt Q16513)
MAP2K1 (human) = MAP2K1 (human) (UniProt Q02750)
EPHA4 (human) = EPHA4 (human) (UniProt P54764)
EPHB3 (human) = EPHB3 (human) (UniProt P54753)
LCK (mouse) = details: accession and sequence are those of the human protein
MINK1 (human) = MINK1 (human) (UniProt Q8N4C8)
EPHB2 (human) = EPHB2 (human) (UniProt P29323); details: compound 0.1 µM
EPHA2 (human) = EPHA2 (human) (UniProt P29317)
[2] = test system: PAK2 (human), Q13177 [T402E]
TTK (human) = TTK (human) (UniProt P33981)
TBK1 (human) = TBK1 (human) (UniProt Q9UHD2)
RPS6KA3 KD1 KD2 (human) = RPS6KA3 KD1 KD2 (human) (UniProt P51812)
ROCK2 (rat) = details: accession and sequence are those of the human protein
MAPK8 (human) = MAPK8 (human) (UniProt P45983)
PAK4 (human) = PAK4 (human) (UniProt O96013)
CSK (human) = CSK (human) (UniProt P41240)
PAK6 (human) = PAK6 (human) (UniProt Q9NQU5)

Chain of MAP3K7 TAB1 (human) (O43318 whole entry, looked up): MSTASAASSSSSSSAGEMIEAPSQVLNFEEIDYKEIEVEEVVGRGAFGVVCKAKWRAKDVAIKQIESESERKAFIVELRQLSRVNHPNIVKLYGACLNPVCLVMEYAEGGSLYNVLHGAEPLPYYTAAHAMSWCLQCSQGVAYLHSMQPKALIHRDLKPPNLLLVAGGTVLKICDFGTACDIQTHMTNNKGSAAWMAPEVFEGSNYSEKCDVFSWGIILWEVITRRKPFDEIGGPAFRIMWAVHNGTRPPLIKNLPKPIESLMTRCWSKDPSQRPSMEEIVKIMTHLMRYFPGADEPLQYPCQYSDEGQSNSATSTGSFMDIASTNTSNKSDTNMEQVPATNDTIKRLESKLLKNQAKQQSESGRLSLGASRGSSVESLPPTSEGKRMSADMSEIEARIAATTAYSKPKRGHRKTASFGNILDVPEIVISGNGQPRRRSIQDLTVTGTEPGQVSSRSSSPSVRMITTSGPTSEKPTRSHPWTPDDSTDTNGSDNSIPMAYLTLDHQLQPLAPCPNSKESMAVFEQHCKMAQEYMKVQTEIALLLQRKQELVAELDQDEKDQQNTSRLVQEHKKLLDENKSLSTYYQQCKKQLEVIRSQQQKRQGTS
Chain of MAP3K7 TAB1 (human) (Q15750 whole entry, looked up): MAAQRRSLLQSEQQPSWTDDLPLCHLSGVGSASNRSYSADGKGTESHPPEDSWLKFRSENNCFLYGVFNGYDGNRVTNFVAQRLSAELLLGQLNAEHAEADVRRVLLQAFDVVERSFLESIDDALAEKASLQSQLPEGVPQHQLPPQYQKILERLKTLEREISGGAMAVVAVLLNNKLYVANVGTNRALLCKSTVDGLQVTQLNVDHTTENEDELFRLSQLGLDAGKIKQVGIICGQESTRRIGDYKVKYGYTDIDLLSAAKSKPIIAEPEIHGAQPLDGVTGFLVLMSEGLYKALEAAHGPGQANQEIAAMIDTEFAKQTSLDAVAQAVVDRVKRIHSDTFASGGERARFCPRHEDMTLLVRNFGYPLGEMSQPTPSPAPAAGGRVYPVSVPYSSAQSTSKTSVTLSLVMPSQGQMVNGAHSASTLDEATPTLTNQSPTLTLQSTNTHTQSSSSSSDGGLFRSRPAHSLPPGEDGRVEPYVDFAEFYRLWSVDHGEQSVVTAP
Chain of PAK2 (human), Q13177 [T402E] (Q13177 whole entry T402E, looked up): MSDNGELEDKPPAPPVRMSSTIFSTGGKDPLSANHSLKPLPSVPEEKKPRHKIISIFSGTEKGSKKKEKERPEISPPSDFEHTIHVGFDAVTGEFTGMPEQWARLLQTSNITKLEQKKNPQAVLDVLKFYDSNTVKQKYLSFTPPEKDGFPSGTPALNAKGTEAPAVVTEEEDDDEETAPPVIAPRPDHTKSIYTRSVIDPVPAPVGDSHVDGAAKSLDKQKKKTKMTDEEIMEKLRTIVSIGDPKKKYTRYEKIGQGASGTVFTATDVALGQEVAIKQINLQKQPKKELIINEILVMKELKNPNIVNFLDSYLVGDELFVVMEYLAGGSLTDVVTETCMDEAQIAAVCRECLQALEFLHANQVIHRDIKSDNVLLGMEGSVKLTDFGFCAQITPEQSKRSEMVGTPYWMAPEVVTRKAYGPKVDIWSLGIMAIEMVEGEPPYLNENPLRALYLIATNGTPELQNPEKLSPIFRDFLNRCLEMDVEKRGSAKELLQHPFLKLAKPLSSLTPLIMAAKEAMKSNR
Chain of MINK1 (human) (Q8N4C8 whole entry, looked up): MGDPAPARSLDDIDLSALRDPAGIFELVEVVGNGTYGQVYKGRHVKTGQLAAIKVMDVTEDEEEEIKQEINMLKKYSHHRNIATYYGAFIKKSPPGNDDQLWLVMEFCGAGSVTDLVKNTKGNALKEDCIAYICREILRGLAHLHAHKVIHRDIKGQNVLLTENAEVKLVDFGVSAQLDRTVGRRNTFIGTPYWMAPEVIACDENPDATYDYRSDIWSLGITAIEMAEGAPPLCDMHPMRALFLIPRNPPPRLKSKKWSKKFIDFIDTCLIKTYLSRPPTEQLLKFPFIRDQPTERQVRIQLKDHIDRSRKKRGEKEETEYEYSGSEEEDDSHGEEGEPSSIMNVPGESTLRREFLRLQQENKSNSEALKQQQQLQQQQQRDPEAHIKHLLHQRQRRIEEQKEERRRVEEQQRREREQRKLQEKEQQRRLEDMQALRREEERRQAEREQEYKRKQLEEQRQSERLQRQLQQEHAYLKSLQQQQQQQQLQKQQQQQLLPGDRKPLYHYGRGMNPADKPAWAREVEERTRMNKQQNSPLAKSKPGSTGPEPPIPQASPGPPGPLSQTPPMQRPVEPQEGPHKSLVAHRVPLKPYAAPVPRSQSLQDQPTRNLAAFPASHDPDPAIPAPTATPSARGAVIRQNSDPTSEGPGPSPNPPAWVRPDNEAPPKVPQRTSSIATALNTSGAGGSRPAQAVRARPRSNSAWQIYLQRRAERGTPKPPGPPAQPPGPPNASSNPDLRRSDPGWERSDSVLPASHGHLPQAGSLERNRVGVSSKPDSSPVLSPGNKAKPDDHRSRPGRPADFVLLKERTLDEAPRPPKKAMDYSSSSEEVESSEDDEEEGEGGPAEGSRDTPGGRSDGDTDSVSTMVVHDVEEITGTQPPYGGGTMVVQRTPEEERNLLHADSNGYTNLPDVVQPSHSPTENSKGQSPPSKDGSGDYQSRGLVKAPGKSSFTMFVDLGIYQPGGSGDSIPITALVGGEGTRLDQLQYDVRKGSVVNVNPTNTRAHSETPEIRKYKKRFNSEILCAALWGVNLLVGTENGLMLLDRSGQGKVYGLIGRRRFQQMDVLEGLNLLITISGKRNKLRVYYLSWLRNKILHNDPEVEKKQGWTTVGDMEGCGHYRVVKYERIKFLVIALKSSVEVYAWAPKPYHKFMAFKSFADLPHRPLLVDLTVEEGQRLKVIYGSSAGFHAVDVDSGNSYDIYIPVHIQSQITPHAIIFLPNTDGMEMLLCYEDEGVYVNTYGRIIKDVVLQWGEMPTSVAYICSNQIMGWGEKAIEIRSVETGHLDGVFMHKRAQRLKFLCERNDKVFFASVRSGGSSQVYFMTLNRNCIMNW
Chain of PAK4 (human) (O96013 whole entry, looked up): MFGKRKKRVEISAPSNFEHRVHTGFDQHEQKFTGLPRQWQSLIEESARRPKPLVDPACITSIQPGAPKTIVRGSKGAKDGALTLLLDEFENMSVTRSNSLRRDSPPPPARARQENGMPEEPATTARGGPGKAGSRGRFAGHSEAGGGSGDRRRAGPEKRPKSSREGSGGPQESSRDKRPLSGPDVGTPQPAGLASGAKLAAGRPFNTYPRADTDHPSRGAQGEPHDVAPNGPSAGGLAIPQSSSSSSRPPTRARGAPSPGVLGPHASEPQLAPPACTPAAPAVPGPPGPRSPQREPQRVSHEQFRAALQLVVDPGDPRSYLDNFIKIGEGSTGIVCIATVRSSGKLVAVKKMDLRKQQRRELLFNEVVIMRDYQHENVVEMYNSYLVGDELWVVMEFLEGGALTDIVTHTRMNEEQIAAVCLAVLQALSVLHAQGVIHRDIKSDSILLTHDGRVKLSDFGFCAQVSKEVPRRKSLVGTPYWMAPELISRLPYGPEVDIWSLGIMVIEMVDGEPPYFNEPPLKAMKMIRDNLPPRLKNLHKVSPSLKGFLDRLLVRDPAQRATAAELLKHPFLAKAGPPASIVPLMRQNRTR
Chain of EPHB1 (human) (P54762 whole entry, looked up): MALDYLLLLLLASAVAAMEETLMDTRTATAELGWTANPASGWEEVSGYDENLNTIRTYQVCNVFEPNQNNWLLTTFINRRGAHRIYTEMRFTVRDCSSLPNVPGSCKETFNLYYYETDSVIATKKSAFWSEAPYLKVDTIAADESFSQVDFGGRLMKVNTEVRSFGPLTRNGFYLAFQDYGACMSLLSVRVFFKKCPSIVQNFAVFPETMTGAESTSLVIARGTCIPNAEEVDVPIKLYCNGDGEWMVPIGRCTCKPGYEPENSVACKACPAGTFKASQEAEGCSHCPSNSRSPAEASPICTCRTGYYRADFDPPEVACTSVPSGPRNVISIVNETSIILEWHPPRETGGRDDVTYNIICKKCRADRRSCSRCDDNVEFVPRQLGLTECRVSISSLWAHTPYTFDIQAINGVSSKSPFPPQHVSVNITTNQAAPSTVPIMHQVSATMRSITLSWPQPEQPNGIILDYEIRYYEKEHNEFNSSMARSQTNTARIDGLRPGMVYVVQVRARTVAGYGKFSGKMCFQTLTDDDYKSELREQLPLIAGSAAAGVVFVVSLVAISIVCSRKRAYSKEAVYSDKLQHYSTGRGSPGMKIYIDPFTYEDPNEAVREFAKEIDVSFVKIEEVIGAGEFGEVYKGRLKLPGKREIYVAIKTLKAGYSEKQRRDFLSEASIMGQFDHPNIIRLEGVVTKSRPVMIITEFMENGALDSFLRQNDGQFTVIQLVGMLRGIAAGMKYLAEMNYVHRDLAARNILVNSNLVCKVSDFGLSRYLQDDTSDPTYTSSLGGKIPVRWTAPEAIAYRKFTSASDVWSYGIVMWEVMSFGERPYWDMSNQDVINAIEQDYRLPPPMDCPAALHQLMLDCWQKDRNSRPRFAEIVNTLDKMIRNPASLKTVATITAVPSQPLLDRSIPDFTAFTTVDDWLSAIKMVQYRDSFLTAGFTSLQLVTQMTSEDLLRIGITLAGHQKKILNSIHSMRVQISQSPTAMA
Chain of AKT1 (human), P31749 [S473D] (P31749 whole entry S473D, looked up): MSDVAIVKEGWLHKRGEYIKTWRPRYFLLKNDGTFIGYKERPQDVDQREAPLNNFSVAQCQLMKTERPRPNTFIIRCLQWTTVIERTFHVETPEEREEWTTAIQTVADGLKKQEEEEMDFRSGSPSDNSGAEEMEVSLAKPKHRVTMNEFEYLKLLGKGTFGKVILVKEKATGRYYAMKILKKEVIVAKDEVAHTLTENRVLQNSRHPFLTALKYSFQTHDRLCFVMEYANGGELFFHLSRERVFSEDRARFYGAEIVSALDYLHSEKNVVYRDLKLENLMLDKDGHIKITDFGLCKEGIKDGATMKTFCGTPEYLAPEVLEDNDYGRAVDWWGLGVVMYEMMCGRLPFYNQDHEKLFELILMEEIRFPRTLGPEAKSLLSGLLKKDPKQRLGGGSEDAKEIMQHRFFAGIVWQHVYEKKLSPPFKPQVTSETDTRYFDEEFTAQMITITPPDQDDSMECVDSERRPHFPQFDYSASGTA

residual activity (GCK (human); compound 0.1 µM): 41%
residual activity (GCK (human); compound 1.0 µM): 82%
residual activity (GCK (human); compound 10.0 µM): 44%
residual activity ([1]; compound 0.1 µM): 109%
residual activity ([1]; compound 1.0 µM): 106%
residual activity ([1]; compound 10.0 µM): 94%
residual activity (MAP3K11 (human); compound 0.1 µM): 93%
residual activity (MAP3K11 (human); compound 1.0 µM): 86%
residual activity (MAP3K11 (human); compound 10.0 µM): 81%
residual activity (AURKB (human); compound 0.1 µM): 132%
residual activity (AURKB (human); compound 1.0 µM): 117%
residual activity (AURKB (human); compound 10.0 µM): 115%
residual activity (MST4 (human); compound 0.1 µM): 117%
residual activity (MST4 (human); compound 1.0 µM): 107%
residual activity (MST4 (human); compound 10.0 µM): 95%
residual activity (CaMK1 (human); compound 0.1 µM): 81%
residual activity (CaMK1 (human); compound 1.0 µM): 20%
residual activity (CaMK1 (human); compound 10.0 µM): 1%
residual activity (DYRK3 (human); compound 0.1 µM): 39%
residual activity (DYRK3 (human); compound 1.0 µM): 14%
residual activity (DYRK3 (human); compound 10.0 µM): 7%
residual activity (CDK2 CCNA2 (human); compound 0.1 µM): 66%
residual activity (CDK2 CCNA2 (human); compound 1.0 µM): 30%
residual activity (CDK2 CCNA2 (human); compound 10.0 µM): 11%
residual activity (IKBKB (human); compound 0.1 µM): 85%
residual activity (IKBKB (human); compound 1.0 µM): 50%
residual activity (IKBKB (human); compound 10.0 µM): 23%
residual activity (SRC (human); compound 0.1 µM): 106%
residual activity (SRC (human); compound 1.0 µM): 90%
residual activity (SRC (human); compound 10.0 µM): 66%
residual activity (MAP3K7 TAB1 (human); compound 0.1 µM): 94%
residual activity (MAP3K7 TAB1 (human); compound 1.0 µM): 100%
residual activity (MAP3K7 TAB1 (human); compound 10.0 µM): 55%
residual activity (MAPK10 (human); compound 0.1 µM): 88%
residual activity (MAPK10 (human); compound 1.0 µM): 79%
residual activity (MAPK10 (human); compound 10.0 µM): 31%
residual activity (NUAK1 (human); compound 1.0 µM): 17%
residual activity (NUAK1 (human); compound 10.0 µM): 32%
residual activity (MYLK (human); compound 0.1 µM): 85%
residual activity (MYLK (human); compound 1.0 µM): 40%
residual activity (MYLK (human); compound 10.0 µM): 10%
residual activity (CHEK2 (human); compound 0.1 µM): 102%
residual activity (CHEK2 (human); compound 1.0 µM): 106%
residual activity (CHEK2 (human); compound 10.0 µM): 88%
residual activity (MARK2 (human); compound 0.1 µM): 97%
residual activity (MARK2 (human); compound 1.0 µM): 63%
residual activity (MARK2 (human); compound 10.0 µM): 31%
residual activity (TAOK1 (human); compound 0.1 µM): 103%
residual activity (TAOK1 (human); compound 10.0 µM): 53%
residual activity (EPHB1 (human); compound 0.1 µM): 96%
residual activity (EPHB1 (human); compound 1.0 µM): 111%
residual activity (EPHB1 (human); compound 10.0 µM): 99%
residual activity (CHEK1 (human); compound 1.0 µM): 100%
residual activity (CHEK1 (human); compound 10.0 µM): 70%
residual activity (PKN2 (human); compound 0.1 µM): 96%
residual activity (PKN2 (human); compound 1.0 µM): 66%
residual activity (PKN2 (human); compound 10.0 µM): 19%
residual activity (MAP2K1 (human); compound 0.1 µM): 86%
residual activity (MAP2K1 (human); compound 1.0 µM): 77%
residual activity (MAP2K1 (human); compound 10.0 µM): 49%
residual activity (EPHA4 (human); compound 0.1 µM): 90%
residual activity (EPHA4 (human); compound 1.0 µM): 78%
residual activity (EPHA4 (human); compound 10.0 µM): 48%
residual activity (EPHB3 (human); compound 0.1 µM): 105%
residual activity (EPHB3 (human); compound 1.0 µM): 124%
residual activity (EPHB3 (human); compound 10.0 µM): 94%
residual activity (LCK (mouse); compound 0.1 µM): 84%
residual activity (LCK (mouse); compound 1.0 µM): 30%
residual activity (LCK (mouse); compound 10.0 µM): 9%
residual activity (MINK1 (human); compound 0.1 µM): 65%
residual activity (MINK1 (human); compound 1.0 µM): 13%
residual activity (MINK1 (human); compound 10.0 µM): 2%
residual activity (EPHB2 (human)): 105%
residual activity (EPHA2 (human); compound 0.1 µM): 78%
residual activity (EPHA2 (human); compound 1.0 µM): 99%
residual activity (EPHA2 (human); compound 10.0 µM): 82%
residual activity ([2]; compound 0.1 µM): 105%
residual activity ([2]; compound 1.0 µM): 93%
residual activity ([2]; compound 10.0 µM): 57%
residual activity (TTK (human); compound 0.1 µM): 111%
residual activity (TTK (human); compound 1.0 µM): 87%
residual activity (TTK (human); compound 10.0 µM): 79%
residual activity (TBK1 (human); compound 1.0 µM): 88%
residual activity (TBK1 (human); compound 10.0 µM): 30%
residual activity (RPS6KA3 KD1 KD2 (human); compound 0.1 µM): 98%
residual activity (RPS6KA3 KD1 KD2 (human); compound 10.0 µM): 81%
residual activity (ROCK2 (rat); compound 0.1 µM): 99%
residual activity (ROCK2 (rat); compound 10.0 µM): 51%
residual activity (MAPK8 (human); compound 0.1 µM): 109%
residual activity (MAPK8 (human); compound 1.0 µM): 100%
residual activity (MAPK8 (human); compound 10.0 µM): 38%
residual activity (PAK4 (human); compound 0.1 µM): 101%
residual activity (PAK4 (human); compound 1.0 µM): 93%
residual activity (PAK4 (human); compound 10.0 µM): 74%
residual activity (CSK (human); compound 0.1 µM): 113%
residual activity (CSK (human); compound 1.0 µM): 116%
residual activity (CSK (human); compound 10.0 µM): 90%
residual activity (PAK6 (human); compound 0.1 µM): 99%
residual activity (PAK6 (human); compound 1.0 µM): 99%
residual activity (PAK6 (human); compound 10.0 µM): 81%
Structure (SMILES): NC(=O)c1cc(-c2ccnc(NC3CCCCC3)c2)nc(N2CCNCC2)c1
